Experimental data reported in ChEMBL document CHEMBL5303573, “Mapping human microbiome drug metabolism by gut bacteria and their genes” (Nature, 2019).

Legend:
[1] = The drug is tested on Eggerthella lenta strain: ATCC25559 for biotransformation. The drug concentrations were measured before and after a 12-h incubation by liquid-chromatography-coupled mass spectrometry (LC–MS); conditions: 2 µM
[2] = The drug is tested on Bacteroides xylanisolvens strain: DSM18836 for biotransformation. The drug concentrations were measured before and after a 12-h incubation by liquid-chromatography-coupled mass spectrometry (LC–MS); conditions: 2 µM
[3] = The drug is tested on Anaerococcus hydrogenalis strain: DSM7454 for biotransformation. The drug concentrations were measured before and after a 12-h incubation by liquid-chromatography-coupled mass spectrometry (LC–MS); conditions: 2 µM
[4] = target: T1, Pyridine nucleotide-disulfide oxidoreductase (Collinsella aerofaciens, UniProt A4EBM5); test: (§1) The drug is tested on Collinsella aerofaciens strain: ATCC25986 for biotransformation. The drug concentrations were measured before and after a 12-h incubation by liquid-chromatography-coupled mass spectrometry (LC–MS); format: ADME; parameters: dose 2 uM; conditions: 2 µM
T1 sequence (A4EBM5 whole entry): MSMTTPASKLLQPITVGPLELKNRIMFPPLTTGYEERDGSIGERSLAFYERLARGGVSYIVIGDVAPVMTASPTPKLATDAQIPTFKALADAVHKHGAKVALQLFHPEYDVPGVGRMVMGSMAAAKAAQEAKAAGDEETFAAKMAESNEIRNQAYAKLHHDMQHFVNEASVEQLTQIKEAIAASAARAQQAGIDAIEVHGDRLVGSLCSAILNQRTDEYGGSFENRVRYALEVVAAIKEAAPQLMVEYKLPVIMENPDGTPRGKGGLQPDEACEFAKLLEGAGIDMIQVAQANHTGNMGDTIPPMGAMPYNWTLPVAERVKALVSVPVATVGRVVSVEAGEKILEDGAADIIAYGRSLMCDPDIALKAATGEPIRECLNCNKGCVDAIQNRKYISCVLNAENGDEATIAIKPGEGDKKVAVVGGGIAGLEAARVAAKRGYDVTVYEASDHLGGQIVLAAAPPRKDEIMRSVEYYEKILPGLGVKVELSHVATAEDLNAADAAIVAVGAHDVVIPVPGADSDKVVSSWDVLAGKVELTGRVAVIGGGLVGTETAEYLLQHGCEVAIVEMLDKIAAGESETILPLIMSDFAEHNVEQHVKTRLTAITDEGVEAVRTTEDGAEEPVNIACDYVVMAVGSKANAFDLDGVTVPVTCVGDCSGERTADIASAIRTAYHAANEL

[5] = target: T2, GDSL-like protein (Collinsella aerofaciens, UniProt A4E7D0); test: as §1; format: ADME; parameters: dose 2 uM; conditions: 2 µM
T2 sequence (A4E7D0 whole entry): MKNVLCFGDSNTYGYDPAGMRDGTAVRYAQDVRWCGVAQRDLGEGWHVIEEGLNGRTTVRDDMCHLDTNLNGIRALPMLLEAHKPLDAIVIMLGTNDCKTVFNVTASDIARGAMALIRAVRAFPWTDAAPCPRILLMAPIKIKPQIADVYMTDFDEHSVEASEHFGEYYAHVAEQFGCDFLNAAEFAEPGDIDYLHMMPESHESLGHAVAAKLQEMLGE

[6] = target: T3, GDSL-like protein (Collinsella aerofaciens, UniProt A4E8S4); test: as §1; format: ADME; parameters: dose 2 uM; conditions: 2 µM
T3 sequence (A4E8S4 whole entry): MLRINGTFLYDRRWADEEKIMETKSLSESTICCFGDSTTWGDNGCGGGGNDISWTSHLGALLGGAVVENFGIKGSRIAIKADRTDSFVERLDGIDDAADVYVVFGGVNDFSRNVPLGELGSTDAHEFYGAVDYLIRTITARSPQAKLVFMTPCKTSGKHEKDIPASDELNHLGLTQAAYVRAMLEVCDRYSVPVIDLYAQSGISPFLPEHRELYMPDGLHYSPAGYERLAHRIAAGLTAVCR

[7] = target: T4, Flavodoxin (Collinsella aerofaciens, UniProt A4ED08); test: as §1; format: ADME; parameters: dose 2 uM; conditions: 2 µM
T4 sequence (A4ED08 whole entry): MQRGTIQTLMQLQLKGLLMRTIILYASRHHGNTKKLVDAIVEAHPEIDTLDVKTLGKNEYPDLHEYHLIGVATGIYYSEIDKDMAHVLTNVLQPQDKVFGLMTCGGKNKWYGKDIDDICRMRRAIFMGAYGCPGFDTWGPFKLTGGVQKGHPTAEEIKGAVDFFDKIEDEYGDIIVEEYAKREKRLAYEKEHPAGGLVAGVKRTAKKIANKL

[8] = target: T5, Diguanylate cyclase (Collinsella aerofaciens, UniProt A4EB91); test: as §1; format: ADME; parameters: dose 2 uM; conditions: 2 µM
T5 sequence (A4EB91 whole entry): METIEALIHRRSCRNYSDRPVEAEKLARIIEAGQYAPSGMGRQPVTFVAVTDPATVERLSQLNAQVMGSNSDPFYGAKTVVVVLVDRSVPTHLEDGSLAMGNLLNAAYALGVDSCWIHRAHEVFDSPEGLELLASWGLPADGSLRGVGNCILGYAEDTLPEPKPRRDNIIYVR

[9] = victivallis vadensis, 12 h, 2 µM
Description: The drug is tested on Victivallis vadensis strain: ATCC BAA-548 for biotransformation. The drug concentrations were measured before and after a 12-h incubation by liquid-chromatography-coupled mass spectrometry (LC–MS)

[10] = The drug is tested on Eubacterium ventriosum strain: ATCC27560 for biotransformation. The drug concentrations were measured before and after a 12-h incubation by liquid-chromatography-coupled mass spectrometry (LC–MS); format: ADME; parameters: dose 2 uM, timepoint 0 vs 12 hours; conditions: 2 µM
[11] = bacteroides thetaiotaomicron, 12 h, 2 µM
Description: The drug is tested on Bacteroides thetaiotaomicron strain: 3731 for biotransformation. The drug concentrations were measured before and after a 12-h incubation by liquid-chromatography-coupled mass spectrometry (LC–MS)

[12] = The drug is tested on Escherichia coli strain: BW25113 for biotransformation. The drug concentrations were measured before and after a 12-h incubation by liquid-chromatography-coupled mass spectrometry (LC–MS); conditions: 2 µM
[13] = The drug is tested on Proteus penneri strain: ATCC35198 for biotransformation. The drug concentrations were measured before and after a 12-h incubation by liquid-chromatography-coupled mass spectrometry (LC–MS); conditions: 2 µM
[14] = The drug is tested on Bacteroides fragilis strain: T(B)9 for biotransformation. The drug concentrations were measured before and after a 12-h incubation by liquid-chromatography-coupled mass spectrometry (LC–MS); conditions: 2 µM
[15] = The drug is tested on Clostridium hathewayi strain: DSM13479 for biotransformation. The drug concentrations were measured before and after a 12-h incubation by liquid-chromatography-coupled mass spectrometry (LC–MS); conditions: hungatella hathewayi, 2 µM
[16] = clostridioides difficile, 12 h, 2 µM
Description: The drug is tested on Clostridium difficile strain: 120 for biotransformation. The drug concentrations were measured before and after a 12-h incubation by liquid-chromatography-coupled mass spectrometry (LC–MS)

[17] = The drug is tested on Providencia alcalifaciens strain: DSM30120 for biotransformation. The drug concentrations were measured before and after a 12-h incubation by liquid-chromatography-coupled mass spectrometry (LC–MS); conditions: 2 µM
[18] = The drug is tested on Salmonella typhimurium strain: LT2 for biotransformation. The drug concentrations were measured before and after a 12-h incubation by liquid-chromatography-coupled mass spectrometry (LC–MS); conditions: salmonella enterica subsp. enterica, 2 µM
[19] = The drug is tested on Eubacterium biforme strain: DSM3989 for biotransformation. The drug concentrations were measured before and after a 12-h incubation by liquid-chromatography-coupled mass spectrometry (LC–MS); conditions: holdemanella biformis, 2 µM
[20] = The drug is tested on Clostridium spiroforme strain: DSM1552 for biotransformation. The drug concentrations were measured before and after a 12-h incubation by liquid-chromatography-coupled mass spectrometry (LC–MS); conditions: thomasclavelia spiroformis, 2 µM

| Bacterial Biotransformation [1] | Bacterial Biotransformation [2] | Bacterial Biotransformation [3] | Bacterial Biotransformation [4] | Bacterial Biotransformation [5] | Bacterial Biotransformation [6] | Bacterial Biotransformation [7] | Bacterial Biotransformation [8] | Bacterial Biotransformation [9] | Bacterial Biotransformation [10] | Bacterial Biotransformation [11] | Bacterial Biotransformation [12] | Bacterial Biotransformation [13] | Bacterial Biotransformation [14] | Bacterial Biotransformation [15] | Bacterial Biotransformation [16] | Bacterial Biotransformation [17] | Bacterial Biotransformation [18] | Bacterial Biotransformation [19] | Bacterial Biotransformation [20] | Structure (SMILES) |
| --- | --- | --- | --- | --- | --- | --- | --- | --- | --- | --- | --- | --- | --- | --- | --- | --- | --- | --- | --- | --- |
| Compound NOT metabolized | Compound metabolized | Compound NOT metabolized | Compound NOT metabolized | Compound NOT metabolized | Compound NOT metabolized | Compound NOT metabolized | Compound NOT metabolized | Compound NOT metabolized | Compound NOT metabolized | Compound NOT metabolized | Compound NOT metabolized | – | – | – | – | – | – | – | – | C[C@]12CCC(=O)C=C1[C@@H]1C[C@@H]1[C@H]1[C@@H]3[C@@H]4C[C@@H]4[C@@]4(CCC(=O)O4)[C@@]3(C)CC[C@@H]12 [DROSPIRENONE] |
| Compound NOT metabolized | Compound metabolized | Compound NOT metabolized | – | – | – | – | – | Compound NOT metabolized | – | Compound NOT metabolized | – | Compound NOT metabolized | Compound metabolized | Compound NOT metabolized | Compound NOT metabolized | Compound NOT metabolized | Compound NOT metabolized | Compound NOT metabolized | Compound NOT metabolized | Nc1nc2ccc(OC(F)(F)F)cc2s1 [RILUZOLE] |
